Experimental data: patent US20160376240A1, “6 Phenyl or 6 Pyridin 3 YL Indazole Derivatives and Methods of Use” (ABBVIE INC., priority 2014, published 2016)

Target: T1, TrkA (Homo sapiens, UniProt P04629)
T1 construct: purchased Invitrogen PV3144
Assay: TrkA kinase inhibition, HTRF assay
Assay type: biochemical
Settings: LCK peptide substrate 125 nM, TrkA 2-10 nM pre-incubated with ATP 200 μM
Procedure, shortened: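 TrkA (2-10 nM) preactivated 20 min with 200 μM ATP in HEPES pH 7.4 with Mg2+/Mn2+, then compound for 10 min, then 125 nM biotinylated LCK-peptide for 1 h at ambient temperature. HTRF 665/620 ratio read; IC50 fitted from initial-rate percent inhibition.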

T1 sequence (P04629 33-796): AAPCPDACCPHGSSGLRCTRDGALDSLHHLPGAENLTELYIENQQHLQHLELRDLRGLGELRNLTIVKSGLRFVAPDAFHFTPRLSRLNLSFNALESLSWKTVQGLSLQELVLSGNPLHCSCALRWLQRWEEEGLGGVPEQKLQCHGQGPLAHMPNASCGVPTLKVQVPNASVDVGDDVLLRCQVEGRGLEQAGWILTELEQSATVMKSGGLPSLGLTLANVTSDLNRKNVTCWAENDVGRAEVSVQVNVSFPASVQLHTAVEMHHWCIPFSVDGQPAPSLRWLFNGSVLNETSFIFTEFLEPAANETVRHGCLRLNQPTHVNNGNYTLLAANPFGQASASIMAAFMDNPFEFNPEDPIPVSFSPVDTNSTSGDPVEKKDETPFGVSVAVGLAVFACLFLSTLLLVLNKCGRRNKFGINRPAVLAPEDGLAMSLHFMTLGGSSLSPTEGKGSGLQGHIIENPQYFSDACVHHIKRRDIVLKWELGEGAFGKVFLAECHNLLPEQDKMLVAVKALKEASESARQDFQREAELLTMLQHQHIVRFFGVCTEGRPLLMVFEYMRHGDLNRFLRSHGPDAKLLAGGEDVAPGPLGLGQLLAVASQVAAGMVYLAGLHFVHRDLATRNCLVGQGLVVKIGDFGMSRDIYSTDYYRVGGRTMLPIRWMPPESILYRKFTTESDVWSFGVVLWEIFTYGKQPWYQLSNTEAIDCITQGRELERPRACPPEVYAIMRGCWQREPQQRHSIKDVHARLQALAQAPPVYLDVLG

Compound	IC50 [nM]
CNC(=O)c1ccc(-c2cc(O[C@H](C)C(F)(F)F)c3c(N)n[nH]c3c2)cc1N1CCC(O)(c2ccccc2)CC1 [Example 60, 4-(3-amino-4-{[(2R)-1,1,1-trifluoropropan-2-yl]oxy}-1H-indazol-6-yl)-2-(4-hydroxy-4-phenylpiperidin-1-yl)-N-methylbenzamide]	223
CC(=O)Nc1ccc(-c2cc(OC3CCOCC3)c3c(C)n[nH]c3c2)cc1N1CCN(C(=O)C2CCC2)CC1 [Example 144, N-{2-[4-(cyclobutylcarbonyl)piperazin-1-yl]-4-[3-methyl-4-(tetrahydro-2H-pyran-4-yloxy)-1H-indazol-6-yl]phenyl}acetamide]	25.4
CC(=O)Nc1ccc(-c2cc(OC3CCOCC3)c3c(C)n[nH]c3c2)cc1N1CCN(C2CCCCC2)CC1 [Example 119, N-{2-(4-cyclohexylpiperazin-1-yl)-4-[3-methyl-4-(tetrahydro-2H-pyran-4-yloxy)-1H-indazol-6-yl]phenyl}acetamide]	31.1
Cc1n[nH]c2cc(-c3ccc(C(N)=O)c(N4CC5(CN(CC(F)(F)F)C5)C4)c3)cc(OC3CCOCC3)c12 [Example 166, 4-[3-methyl-4-(tetrahydro-2H-pyran-4-yloxy)-1H-indazol-6-yl]-2-[6-(2,2,2-trifluoroethyl)-2,6-diazaspiro[3.3]hept-2-yl]benzamide]	1040
CNC(=O)c1ccc(-c2cc(OC3CCOCC3)c3c(N)n[nH]c3c2)cc1N1CCN(c2cccnc2)CC1 [Example 31, 4-[3-amino-4-(tetrahydro-2H-pyran-4-yloxy)-1H-indazol-6-yl]-N-methyl-2-[4-(pyridin-3-yl)piperazin-1-yl]benzamide]	42.1
NC(=O)c1ccc(-c2cc(OC3CCCC3)c3c(N)n[nH]c3c2)cc1N1CCN(C(=O)c2ccccc2)CC1 [Example 80, 4-[3-amino-4-(cyclopentyloxy)-1H-indazol-6-yl]-2-(4-benzoylpiperazin-1-yl)benzamide]	17.5
CNC(=O)c1ccc(-c2cc(OC3CCOCC3)c3c(C)n[nH]c3c2)cc1N1CCN(C(=O)NC(C)C)CC1 [Example 155, N-isopropyl-4-{2-(methylcarbamoyl)-5-[3-methyl-4-(tetrahydro-2H-pyran-4-yloxy)-1H-indazol-6-yl]phenyl}piperazine-1-carboxamide]	2.27
CNC(=O)c1ccc(-c2cc(OC3CCOCC3)c3cn[nH]c3c2)cc1N1CCN(C2CCCCC2)CC1 [Example 116, 2-(4-cyclohexylpiperazin-1-yl)-N-methyl-4-[4-(tetrahydro-2H-pyran-4-yloxy)-1H-indazol-6-yl]benzamide]	77.8
CC(Oc1cc(-c2ccc(C(=O)NC3CC3)c(N3CCN(c4ccccc4)CC3)c2)cc2[nH]nc(N)c12)C(F)(F)F (stereo not shown) [Example 26, 4-{3-amino-4-[(1,1,1-trifluoropropan-2-yl)oxy]-1H-indazol-6-yl}-N-cyclopropyl-2-(4-phenylpiperazin-1-yl)benzamide]	58.1
CNC(=O)c1ccc(-c2cc(O[C@@H](C)C(F)(F)F)c3c(N)n[nH]c3c2)cc1N1CCN(CCC(C)(C)C)CC1 [Example 40, 4-(3-amino-4-{[(2S)-1,1,1-trifluoropropan-2-yl]oxy}-1H-indazol-6-yl)-2-[4-(3,3-dimethylbutyl)piperazin-1-yl]-N-methylbenzamide]	71.4
CC(Oc1cc(-c2ccc(C(N)=O)c(N3CCN(C(=O)C4CC4)CC3)c2)cc2[nH]nc(N)c12)C(F)(F)F (stereo not shown) [Example 103, 4-{3-amino-4-[(1,1,1-trifluoropropan-2-yl)oxy]-1H-indazol-6-yl}-2-[4-(cyclopropylcarbonyl)piperazin-1-yl]benzamide]	19.4
CNC(=O)c1ccc(-c2cc(OC3CCOCC3)c3c(C)n[nH]c3c2)cc1N1CCN(c2ncc(F)cn2)CC1 [Example 165, 2-[4-(5-fluoropyrimidin-2-yl)piperazin-1-yl]-N-methyl-4-[3-methyl-4-(tetrahydro-2H-pyran-4-yloxy)-1H-indazol-6-yl]benzamide]	1040
CNC(=O)c1ccc(-c2cc(O[C@H](C)C(F)(F)F)c3c(N)n[nH]c3c2)cc1N1CCC(N2CCOCC2)CC1 [Example 59, 4-(3-amino-4-{[(2R)-1,1,1-trifluoropropan-2-yl]oxy}-1H-indazol-6-yl)-N-methyl-2-[4-(morpholin-4-yl)piperidin-1-yl]benzamide]	2550
NC(=O)c1ccc(-c2cc(OC3CCCC3)c3c(N)n[nH]c3c2)cc1N1CCN(C(=O)N2CCOCC2)CC1 [Example 82, 4-[3-amino-4-(cyclopentyloxy)-1H-indazol-6-yl]-2-[4-(morpholin-4-ylcarbonyl)piperazin-1-yl]benzamide]	22.3
Cc1n[nH]c2cc(-c3ccc(C#N)c(N4CCN(C(=O)OC(C)(C)C)CC4)c3)cc(OC3CCOCC3)c12 [Example 139, tert-butyl 4-{2-cyano-5-[3-methyl-4-(tetrahydro-2H-pyran-4-yloxy)-1H-indazol-6-yl]phenyl}piperazine-1-carboxylate]	6.86
CC(=O)Nc1ccc(-c2cc(OC3CCOCC3)c3c(C)n[nH]c3c2)cc1N1CCN(Cc2cccc(F)c2)CC1 [Example 149, N-{2-[4-(3-fluorobenzyl)piperazin-1-yl]-4-[3-methyl-4-(tetrahydro-2H-pyran-4-yloxy)-1H-indazol-6-yl]phenyl}acetamide]	25
NC(=O)c1ccc(-c2ccc3c(N)n[nH]c3c2)cc1N1CCN(c2ccccc2)CC1 [Example 84, 4-(3-amino-1H-indazol-6-yl)-2-(4-phenylpiperazin-1-yl)benzamide]	24.3

The remaining compounds from weak to strong by IC50, led by results:

IC50 [nM]	Compound
141	CNC(=O)c1ccc(-c2cc(O[C@H](C)C(F)(F)F)c3c(N)n[nH]c3c2)cc1N1CCN(c2cccnc2)CC1 [Example 49, 4-(3-amino-4-{[(2R)-1,1,1-trifluoropropan-2-yl]oxy}-1H-indazol-6-yl)-N-methyl-2-[4-(pyridin-3-yl)piperazin-1-yl]benzamide]
67.1	CN1CCC(Oc2cc(-c3ccc(C(=O)NC4CC4)c(N4CCN(c5ccccc5)CC4)c3)cc3[nH]nc(N)c23)CC1 [Example 62, 4-{3-amino-4-[(1-methylpiperidin-4-yl)oxy]-1H-indazol-6-yl}-N-cyclopropyl-2-(4-phenylpiperazin-1-yl)benzamide]
49	CC(=O)Nc1ccc(-c2cc(OC3CCCC3)c3c(C)n[nH]c3c2)cc1NCCOc1ccccc1 [Example 127, N-{4-[4-(cyclopentyloxy)-3-methyl-1H-indazol-6-yl]-2-[(2-phenoxyethyl)amino]phenyl}acetamide]
43.3	NC(=O)c1ccc(-c2ccc3c(N)n[nH]c3c2)cc1N1CCN(Cc2ccccc2)CC1 [Example 87, 4-(3-amino-1H-indazol-6-yl)-2-(4-benzylpiperazin-1-yl)benzamide]
38.5	CNC(=O)c1ccc(-c2cc(O[C@H](C)C(F)(F)F)c3c(N)n[nH]c3c2)cc1N1CCN(c2ccccc2)CC1 [Example 48, 4-(3-amino-4-{[(2R)-1,1,1-trifluoropropan-2-yl]oxy}-1H-indazol-6-yl)-N-methyl-2-(4-phenylpiperazin-1-yl)benzamide]
29.6	CC(=O)c1ccc(-c2cc(OC3CCOCC3)c3c(N)n[nH]c3c2)cc1N1CCN(c2cccnc2)CC1 [Example 16, 1-{4-[3-amino-4-(tetrahydro-2H-pyran-4-yloxy)-1H-indazol-6-yl]-2-[4-(pyridin-3-yl)piperazin-1-yl]phenyl}ethanone]
25.1	CNC(=O)c1ccc(-c2cc(OC3CCOCC3)c3c(C)n[nH]c3c2)cc1N1CCN(C(=O)OCCOC)CC1 [Example 138, 2-methoxyethyl 4-{2-(methylcarbamoyl)-5-[3-methyl-4-(tetrahydro-2H-pyran-4-yloxy)-1H-indazol-6-yl]phenyl}piperazine-1-carboxylate]
24.5	NC(=O)c1ccc(-c2cc(OC3CCCC3)c3c(N)n[nH]c3c2)cc1N1CCC(c2ccccc2)CC1 [Example 76, 4-[3-amino-4-(cyclopentyloxy)-1H-indazol-6-yl]-2-(4-phenylpiperidin-1-yl)benzamide]
21.5	CNC(=O)c1ccc(-c2cc(OC3CCOCC3)c3c(C)n[nH]c3c2)cc1N1CCN(Cc2ccccc2)C(=O)C1 [Example 159, 2-(4-benzyl-3-oxopiperazin-1-yl)-N-methyl-4-[3-methyl-4-(tetrahydro-2H-pyran-4-yloxy)-1H-indazol-6-yl]benzamide]
8.45	CC(=O)N1CCC(Oc2cc(-c3ccc(C(N)=O)c(N4CCN(c5ccccc5)CC4)c3)cc3[nH]nc(N)c23)CC1 [Example 64, 4-{4-[(1-acetylpiperidin-4-yl)oxy]-3-amino-1H-indazol-6-yl}-2-(4-phenylpiperazin-1-yl)benzamide]
5.5	CNC(=O)c1ccc(-c2cc(OC3CCOCC3)c3c(N)n[nH]c3c2)cc1N1CCN(CC2CC(F)(F)C2)CC1 [Example 171, 4-[3-amino-4-(tetrahydro-2H-pyran-4-yloxy)-1H-indazol-6-yl]-2-{4-[(3,3-difluorocyclobutyl)methyl]piperazin-1-yl}-N-methylbenzamide]
2.93	NC(=O)c1ccc(-c2cc(O[C@H]3CCOC3)c3c(N)n[nH]c3c2)cc1N1CCN(c2ccccc2)CC1 [Example 66, 4-{3-amino-4-[(3S)-tetrahydrofuran-3-yloxy]-1H-indazol-6-yl}-2-(4-phenylpiperazin-1-yl)benzamide]
2.67	CNC(=O)c1ccc(-c2cc(O[C@H](C)C(F)(F)F)c3c(N)n[nH]c3c2)cc1OCCOc1ccccc1 [Example 106, 4-(3-amino-4-{[(2R)-1,1,1-trifluoropropan-2-yl]oxy}-1H-indazol-6-yl)-N-methyl-2-(2-phenoxyethoxy)benzamide]
2.41	CC(Oc1cc(-c2ccc(C(N)=O)c(N3CCN(c4ccccn4)CC3)c2)cc2[nH]nc(N)c12)C(F)(F)F (stereo not shown) [Example 94, 4-{3-amino-4-[(1,1,1-trifluoropropan-2-yl)oxy]-1H-indazol-6-yl}-2-[4-(pyridin-2-yl)piperazin-1-yl]benzamide]
